Measured values published in BindingDB's records for doi:10.1021/jm800555h (The Scripps Research Institute, 2008).

Assays:
[1] = biological target: Bifunctional purine biosynthesis protein ATIC (Homo sapiens, UniProt P31939); assay: AICAR Tfase Inhibition Assay; conditions: pH 7.4; 26 °C
From the text: Recombinant human AICAR Tfase was used in the inhibition assay. The reaction was monitored at 298 nm by measuring the increase in absorbance corresponding to the formation of THF. The THF was generated in the transfer reaction of the formyl group from cofactor to AICAR to produce 5-formyl-AICAR. Double reciprocal plots were used to determine the Ki values.

[2] = biological target: T1, Trifunctional purine biosynthetic protein adenosine-3 (Homo sapiens, UniProt P22102); assay: GAR Tfase Activity Assay; conditions: pH 7.5; 26 °C
T1 sequence (P22102 whole entry): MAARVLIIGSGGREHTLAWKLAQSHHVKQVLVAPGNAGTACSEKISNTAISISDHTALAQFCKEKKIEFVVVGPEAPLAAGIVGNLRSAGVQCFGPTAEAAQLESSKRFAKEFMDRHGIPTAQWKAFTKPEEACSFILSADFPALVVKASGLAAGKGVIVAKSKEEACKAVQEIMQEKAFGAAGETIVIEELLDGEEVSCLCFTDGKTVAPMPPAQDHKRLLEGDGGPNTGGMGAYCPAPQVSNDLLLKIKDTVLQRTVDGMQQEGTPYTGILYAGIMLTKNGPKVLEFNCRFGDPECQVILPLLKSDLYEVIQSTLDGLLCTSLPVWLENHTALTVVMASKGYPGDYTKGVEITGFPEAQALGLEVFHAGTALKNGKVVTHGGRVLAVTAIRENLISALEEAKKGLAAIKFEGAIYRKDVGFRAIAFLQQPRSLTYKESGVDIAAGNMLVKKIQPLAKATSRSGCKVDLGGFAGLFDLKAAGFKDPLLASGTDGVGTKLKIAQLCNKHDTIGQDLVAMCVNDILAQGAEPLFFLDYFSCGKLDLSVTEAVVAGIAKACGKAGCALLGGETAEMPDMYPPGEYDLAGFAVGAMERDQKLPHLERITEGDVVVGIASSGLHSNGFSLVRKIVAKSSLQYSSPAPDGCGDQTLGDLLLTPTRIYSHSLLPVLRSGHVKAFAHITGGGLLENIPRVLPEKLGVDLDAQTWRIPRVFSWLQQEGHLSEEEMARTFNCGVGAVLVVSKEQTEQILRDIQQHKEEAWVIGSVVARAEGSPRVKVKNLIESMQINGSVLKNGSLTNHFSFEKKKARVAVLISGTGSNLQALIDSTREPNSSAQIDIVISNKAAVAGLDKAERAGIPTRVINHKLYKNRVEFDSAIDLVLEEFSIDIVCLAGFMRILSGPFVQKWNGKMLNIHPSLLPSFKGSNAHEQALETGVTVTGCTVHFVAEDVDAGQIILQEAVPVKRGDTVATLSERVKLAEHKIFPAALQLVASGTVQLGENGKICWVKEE

Sequence of Bifunctional purine biosynthesis protein ATIC (P31939 whole entry): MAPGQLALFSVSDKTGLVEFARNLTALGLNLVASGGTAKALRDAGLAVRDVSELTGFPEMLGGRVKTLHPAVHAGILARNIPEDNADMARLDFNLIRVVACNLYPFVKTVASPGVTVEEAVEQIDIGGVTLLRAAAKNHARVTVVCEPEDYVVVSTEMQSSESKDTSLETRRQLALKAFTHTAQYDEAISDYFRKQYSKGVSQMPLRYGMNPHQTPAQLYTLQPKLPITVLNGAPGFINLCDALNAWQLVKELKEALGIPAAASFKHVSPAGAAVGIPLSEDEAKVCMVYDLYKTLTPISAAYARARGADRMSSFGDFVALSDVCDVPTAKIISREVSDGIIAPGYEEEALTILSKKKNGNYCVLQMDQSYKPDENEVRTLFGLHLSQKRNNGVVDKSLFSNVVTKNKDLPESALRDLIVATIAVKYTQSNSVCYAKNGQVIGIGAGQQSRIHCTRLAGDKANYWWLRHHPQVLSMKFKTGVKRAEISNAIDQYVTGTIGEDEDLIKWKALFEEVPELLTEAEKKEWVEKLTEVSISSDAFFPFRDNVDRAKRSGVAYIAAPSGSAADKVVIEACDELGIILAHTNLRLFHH

Compound	Ki [1] [µM]	Ki [2] [nM]
CO[C@@H](CCCc1c(N)nc(N)[nH]c1=O)c1ccc(C(=O)NC(CCC(=O)O)C(=O)O)cc1 (stereo partly drawn) [2-({4-[(1S)-4-(2,4-diamino-6-oxo-1,6-dihydropyrimidin-5-yl)-1-methoxybutyl]phenyl}formamido)pentanedioic acid]	> 100	
CS[C@@H](CCCc1c(N)nc(N)[nH]c1=O)c1ccc(C(=O)NC(CCC(=O)O)C(=O)O)cc1 (some centres not stated) [10S (7)]	> 100	
CS[C@H](CCCc1c(N)nc(N)[nH]c1=O)c1ccc(C(=O)NC(CCC(=O)O)C(=O)O)cc1 (some centres not stated) [10R (8)]	> 100	
CO[C@H](CCCc1c(N)nc(N)[nH]c1=O)c1ccc(C(=O)NC(CCC(=O)O)C(=O)O)cc1 (stereo partly drawn) [2-({4-[(1R)-4-(2,4-diamino-6-oxo-1,6-dihydropyrimidin-5-yl)-1-methoxybutyl]phenyl}formamido)pentanedioic acid]	> 100	

The next lines start with the values.

Ki [1] [µM]	Ki [2] [nM]	Compound
> 100		Nc1nc(N)c(CCC[C@H](O)c2ccc(C(=O)NC(CCC(=O)O)C(=O)O)cc2)c(=O)[nH]1 (stereo partly drawn) [2-({4-[(1S)-4-(2,4-diamino-6-oxo-1,6-dihydropyrimidin-5-yl)-1-hydroxybutyl]phenyl}formamido)pentanedioic acid]
> 100	1100	Nc1nc(N)c(CCC[C@@H](O)c2ccc(C(=O)NC(CCC(=O)O)C(=O)O)cc2)c(=O)[nH]1 (stereo partly drawn) [2-({4-[(1R)-4-(2,4-diamino-6-oxo-1,6-dihydropyrimidin-5-yl)-1-hydroxybutyl]phenyl}formamido)pentanedioic acid]
